Data taken from article PMC5789083, “Mechanisms driving the antibacterial and antibiofilm properties of Hp1404 and its analogue peptides against multidrug-resistant Pseudomonas aeruginosa” (Scientific Reports, 2018).
In brackets after ≈: the same amount, converted by molar mass. Like-named read-outs stand apart in the source and are kept apart here.

Key:
[1] = tested on: Pseudomonas aeruginosa and MRPA strains; test: microbe, parasite or virus in culture; format: cell-based; settings: broth micro-dilution, 37 °C, 18–24 h
Description: Gram-negative (Pseudomonas aeruginosa ATCC 27853) bacterial strains were obtained from the ATCC (American Type Culture Collection; Manassas, VA, USA). Multidrug-resistant strains (Pseudomonas aeruginosa 138, 431, 434, 557, 559, 778, 1034, 1162, 3290, 3399, 3592, 3904, 4007, 4319, 4891, 5018, and 671973) were obtained from the Chonnam National University Hospital (Gwangju, South Korea).
We examined the activity of each peptide against both pseudomonas aeruginosa and multidrug-resistant strains. The minimal inhibitory concentrations (MICs) of peptides were determined using the broth micro-dilution assay as described previously. Briefly, bacterial strains were cultivated with shaking overnight at 37 °C. The next day, they were diluted to a density of 2 × 10^5 CFU/mL with growth medium. Peptides were serially diluted with 10 mM sodium phosphate buffer. 50 µL bacterial aliquots were mixed with an equal volume of peptide solution, and incubated at 37 °C for 18–24 h. Inhibition of bacterial growth was determined by measuring the absorbance at 600 nm using a Versa Max microplate reader (Molecular Devices, Sunnyvale, CA, USA). The test was performed in triplicate.

HaCaT cells = test: Cytotoxicity, MTT assay; format: cell-based, human; settings: 3.13 µM, 24 h
Procedure: We used the MTT assay to evaluate the toxicity of the peptides toward human skin epithelial cells (HaCaT) as previously described. Briefly, HaCaT cells were seeded at a density of 2 × 10^4 cells per well in 96-well microtiter plates in Dulbecco’s modified Eagle’s medium (DMEM) containing 10% foetal bovine serum (FBS) at 37 °C under 5% CO2 atmosphere. The next day, peptides were added to each well at various final concentrations (higher concentration of 200 µM). After 24 h incubation, culture supernatants were removed. 0.5 mg/mL MTT was added to each well, and the plates were incubated for 4 h at 37 °C. The medium was replaced by dimethyl sulfoxide (DMSO) to dissolve the formazan crystals formed in the wells. The absorbance at 570 nm was measured using a Versa-Max microplate ELISA reader (Molecular Devices). The viability rate was calculated using the following formula: Cell viability (%) = (absorbance of treated sample)/(absorbance of control) × 100.

mouse red blood cells = test: Hemolytic activity; format: cell-based; settings: at 12.5 M (so in the source); mouse RBCs, positive control
Procedure: The hemolytic activities of the peptides were determined as previously described. Fresh mouse red blood cells (RBCs) were washed and diluted to 8% with PBS. RBC suspension was added to 96-well plates (100 µL/well), mixed with an equal volume of serially diluted peptides, and incubated at 37 °C for 1 h with gentle shaking. The plate was centrifuged and the supernatant was transferred to a 96-well plate. The absorbance at 414 nm was measured with a Versa-Max ELISA reader (Molecular Devices). PBS and 0.1% Triton X-100 were used as negative and positive controls, respectively. The experiment was performed in triplicate. The hemolysis rate was calculated using the following formula[55]: % Hemolysis = [(Abs 414 nm in the peptide solution-Abs 414 nm in PBS)/(Abs 414 nm in 0.1% Triton X-100-Abs 414 nm in PBS)] × 100

[2] = tested on: P. aeruginosa strains (biofilm formation); format: cell-based, Pseudomonas aeruginosa; settings: 24 h, 37 °C, crystal violet OD595
Procedure: To evaluate the ability of bacterial strains to form biofilms either in the absence or presence of peptides, antibiotic-susceptible P. aeruginosa (ATCC 27853), and various strains of MDR P. aeruginosa were cultured in nutrient broth (NB). […]. The biofilms were fixed with 100% methanol for 15 min, stained with 0.1% crystal violet (CV) for 1 h, and rinsed three times with distilled water (dH2O). After the addition of 95% ethanol, biofilm mass was quantified by measuring OD at 595 nm using a Versa-Max microplate ELISA reader (Molecular Devices). Results were expressed as the percentage of biofilm formed with respect to the control. […] All experiments were performed at least in triplicate.

[3] = tested on: P. aeruginosa 1034 biofilm; test: LIVE/DEAD BacLight (SYTO9/PI) staining of biofilms; format: cell-based, Pseudomonas aeruginosa; settings: even at 400 µM; P. aeruginosa 1034, 24 h, 37 °C
Procedure: Visualization of the remaining bacteria in the biofilm was achieved using the LIVE/DEAD BacLight Bacterial Viability Kit (Molecular Probes, Eugene, OR, USA), and an IX71 inverted fluorescence microscope (Olympus, Tokyo, Japan) was used for observation[58],[59]. Briefly, bacterial suspensions (5 × 10^5 CFU/mL) were incubated with 0.5× MBIC or 1× MBIC of the peptides, for 24 h at 37 °C. Following incubation, biofilms were stained with pre-mixed dye (SYTO-9 and propidium iodide) for 30 min in the dark; images were obtained using the aforementioned microscope.

P. aeruginosa 1034 = format: in vivo; settings: BALB/c mice, intradermal P. aeruginosa 1034
Procedure: BALB/c mice (6 weeks old) were used in this study. The mice were shaved and intradermally injected with 20 µl of P. aeruginosa (1 × 10^8 CFU/ml) in PBS.

With `CC[C@H](C)[C@H](NC(=O)CN)C(=O)NCC(=O)N[C@@H](C)C(=O)N[C@H](C(=O)N[C@@H](CC(C)C)C(=O)N[C@@H](CCCCN)C(=O)N[C@H](C(=O)N[C@@H](CC(C)C)C(=O)N[C@H](C(=O)N[C@H](C(=O)NCC(=O)N[C@@H](CC(C)C)C(=O)N1CCC[C@H]1C(=O)N[C@@H](C)C(=O)N[C@@H](CC(C)C)C(=O)N[C@H](C(=O)N[C@@H](CO)C(=O)N[C@@H](Cc1c[nH]c2ccccc12)C(=O)N[C@H](C(=O)N[C@@H](CCCCN)C(=O)N[C@@H](CCCNC(=N)N)C(=O)N[C@@H](CCCCN)C(=O)N[C@@H](CCCNC(=N)N)C(=O)N[C@@H](CCC(N)=O)C(=O)N[C@@H](CCC(N)=O)C(N)=O)[C@@H](C)CC)[C@@H](C)CC)[C@@H](C)O)[C@@H](C)O)C(C)C)C(C)C` [Melittin, reference compound] the MIC ([1]; P. aeruginosa 138 (multidrug-resistant), triplicate) was 3.13 µM (≈ 8.91 µg/mL), the MIC ([1]; P. aeruginosa 431 (multidrug-resistant), triplicate) was 3.13 µM (≈ 8.91 µg/mL) and the MIC ([1]; P. aeruginosa 434 (multidrug-resistant), triplicate) was 3.13 µM (≈ 8.91 µg/mL). It also gave an MIC ([1]; P. aeruginosa 557 (multidrug-resistant), triplicate) of 1.56 µM (≈ 4.44 µg/mL), an MIC ([1]; P. aeruginosa 559 (multidrug-resistant), triplicate) of 3.13 µM (≈ 8.91 µg/mL) and an MIC ([1]; P. aeruginosa 778 (multidrug-resistant), triplicate) of 3.13 µM (≈ 8.91 µg/mL). The MIC ([1]; P. aeruginosa 1034 (multidrug-resistant), triplicate) was 1.56 µM (≈ 4.44 µg/mL), the MIC ([1]; P. aeruginosa 1162 (multidrug-resistant), triplicate) was 3.13 µM (≈ 8.91 µg/mL) and the MIC ([1]; P. aeruginosa 3290 (multidrug-resistant), triplicate) was 3.13 µM (≈ 8.91 µg/mL). It also gave an MIC ([1]; P. aeruginosa 3399 (multidrug-resistant), triplicate) of 3.13 µM (≈ 8.91 µg/mL), an MIC ([1]; P. aeruginosa 3543 (multidrug-resistant), triplicate) of 3.13 µM (≈ 8.91 µg/mL) and an MIC ([1]; P. aeruginosa 3592 (multidrug-resistant), triplicate) of 3.13 µM (≈ 8.91 µg/mL). The MIC ([1]; P. aeruginosa 3904 (multidrug-resistant), triplicate) was 3.13 µM (≈ 8.91 µg/mL), the MIC ([1]; P. aeruginosa 4007 (multidrug-resistant), triplicate) was 3.13 µM (≈ 8.91 µg/mL) and the MIC ([1]; P. aeruginosa 4319 (multidrug-resistant), triplicate) was 3.13 µM (≈ 8.91 µg/mL). The MIC ([1]; P. aeruginosa 4891 (multidrug-resistant), triplicate) was 1.56 µM (≈ 4.44 µg/mL), the MIC ([1]; P. aeruginosa 5018 (multidrug-resistant), triplicate) was 3.13 µM (≈ 8.91 µg/mL) and the MIC ([1]; P. aeruginosa 671973 (multidrug-resistant), triplicate) was 1.56 µM (≈ 4.44 µg/mL). For the same compound, the MIC ([1]; P. aeruginosa ATCC 27853, 2 × 10^5 CFU/mL, A600, triplicate) was 3.13 µM (≈ 8.91 µg/mL), the “survival of HaCaT cells” value (HaCaT cells) was “no living cells were detected” and the hemolysis (mouse red blood cells) was “complete hemolysis”.
For `O=C(O)c1cn(C2CC2)c2cc(N3CCNCC3)c(F)cc2c1=O` [Ciprofloxacin, ciprofloxacin, reference compound], the MIC ([1]; Pseudomonas aeruginosa, ATCC27853, P. aeruginosa ATCC 27853, 2 × 10^5 CFU/mL, A600, triplicate) was 1.56 µM (≈ 0.517 µg/mL), the MIC ([1]; Pseudomonas aeruginosa, P. aeruginosa 138 (multidrug-resistant), triplicate) was over 400 µM and the MIC ([1]; Pseudomonas aeruginosa, P. aeruginosa 431 (multidrug-resistant), triplicate) was over 400 µM. For the same compound, the MIC ([1]; Pseudomonas aeruginosa, P. aeruginosa 434 (multidrug-resistant), triplicate) was over 400 µM, the MIC ([1]; Pseudomonas aeruginosa, P. aeruginosa 557 (multidrug-resistant), triplicate) was over 400 µM and the MIC ([1]; Pseudomonas aeruginosa, P. aeruginosa 559 (multidrug-resistant), triplicate) was over 400 µM. For the same compound, the MIC ([1]; Pseudomonas aeruginosa, P. aeruginosa 778 (multidrug-resistant), triplicate) was over 400 µM, the MIC ([1]; Pseudomonas aeruginosa, P. aeruginosa 1034 (multidrug-resistant), triplicate) was over 400 µM and the MIC ([1]; Pseudomonas aeruginosa, P. aeruginosa 1162 (multidrug-resistant), triplicate) was over 400 µM. The MIC ([1]; Pseudomonas aeruginosa, P. aeruginosa 3290 (multidrug-resistant), triplicate) was over 400 µM, the MIC ([1]; Pseudomonas aeruginosa, P. aeruginosa 3399 (multidrug-resistant), triplicate) was over 400 µM and the MIC ([1]; Pseudomonas aeruginosa, P. aeruginosa 3543 (multidrug-resistant), triplicate) was 400 µM (≈ 133 µg/mL). For the same compound, the MIC ([1]; Pseudomonas aeruginosa, P. aeruginosa 3592 (multidrug-resistant), triplicate) was over 400 µM, the MIC ([1]; Pseudomonas aeruginosa, P. aeruginosa 3904 (multidrug-resistant), triplicate) was 400 µM (≈ 133 µg/mL) and the MIC ([1]; Pseudomonas aeruginosa, P. aeruginosa 4007 (multidrug-resistant), triplicate) was over 400 µM. It also gave an MIC ([1]; Pseudomonas aeruginosa, P. aeruginosa 4319 (multidrug-resistant), triplicate) of over 400 µM, an MIC ([1]; Pseudomonas aeruginosa, P. aeruginosa 4891 (multidrug-resistant), triplicate) of over 400 µM and an MIC ([1]; Pseudomonas aeruginosa, P. aeruginosa 5018 (multidrug-resistant), triplicate) of over 400 µM. The MIC ([1]; Pseudomonas aeruginosa, P. aeruginosa 671973 (multidrug-resistant), triplicate) was 100 µM (≈ 33.1 µg/mL), the MBIC ([2]; P. aeruginosa 434) was over 400 µM and the MBIC ([2]; P. aeruginosa 559) was over 400 µM. The MBIC ([2]; P. aeruginosa 778) was over 400 µM, the MBIC ([2]; P. aeruginosa 1034) was over 400 µM and the MBIC ([2]; P. aeruginosa 1162) was over 400 µM. The MBIC ([2]; P. aeruginosa 3399) was over 400 µM, the MBIC ([2]; P. aeruginosa 3543) was over 400 µM and the MBIC ([2]; P. aeruginosa 4007) was over 400 µM. For the same compound, the “biofilm formation by the MRPA strain (live/dead staining)” value [3] was “did not inhibit biofilm formation”, the “killing of bacteria in infected skin” value (P. aeruginosa 1034; day 7) was “did not kill the bacteria” and the “decrease in number of colonies” value (P. aeruginosa 1034; until 4 days) was “about 60%”.
